Entries after “also recorded” stand apart in the source; their conditions may differ. Square brackets hold non-standard residues; d marks the D form. Ends that are not written are not given here. Peptide text beside a SMILES is read from it.
How the values were obtained:
[1] = tested on: luciferase plasmid DNA (p-β-Luci); test: Gel retardation assay; format: physicochemical; conditions: charge ratio of ≧3
Method: 1 μg of luciferase plasmid DNA (p-β-Luci, Promega (USA)), deionized water, and ATS-R9 (charge ratios: 0.25, 0.5, 1, 3, 5, 7, and 9) were incubated for 30 min at room temperature to construct oligo-peptoplexes. The oligo-peptoplexes were subjected to electrophoresis under 0.5% TBE buffer solution in 0.8% agarose gel for 25 min (100 V). Naked DNA was used as a control. The DNA condensation efficiency of the ATS-R9 was compared with that of branched PEI (25 KDa, Sigma, USA).
The condensation efficacy of ATS-R9 was compared with that of branched PEI (25 kDa).
Oligo-peptoplexes were prepared with luciferase plasmid DNA (p-β-Luci), deionized water, and ATS-R9 or PEI with predetermined charge ratios and incubated for 30 min at room temperature.

C57BL/6J obese mice = test: In vivo internalization into adipose tissue and gene expression
Method: FITC-conjugated ATS-R9 was administered to C57BL/6J obese mouse by tail vein injection. Rhodamine-conjugated lectin was injected to stain blood vessels.
FITC-conjugated ATS-R9 was injected into C57BL/6J obese mice and fixed adipose tissue sections were incubated with biotin-conjugated anti-FITC antibody. Cy3-conjugated ExtrAvidin was used for signal amplification thereof. Images were observed using a multiphoton confocal laser scanning microscope.
Finally, in vivo gene expression was confirmed. To this end, red fluorescence protein (RFP) expressing plasmid was concentrated by FITC-ATS-R9 and the oligo-peptoplexes were injected into C57BL/6J obese mice. Non-treated mice were used as controls. Images were observed using a multiphoton confocal laser scanning microscope.

[2] = In vitro cytotoxicity (MTT) assay; format: cell-based; conditions: mouse, 3T3-L1 differentiated adipocytes (day 10); adipocytes at day 10, 48 h after transfection, charge ratio up to 9; read-out: cell viability
Method: (§1) Cell viability was measured by MTT [3-(4,5-dimethylthiazol-2-yl)-2,5-diphenyltetrazolium bromide]assay.
(§2) 3T3-L1 differentiated adipocytes were incubated in 24-well plates. The adipocytes (at day 10) were treated with oligo-peptoplexes prepared by luciferase plasmid DNA, plain DMEM medium, and ATS-9R at predetermined charge ratios. PEI polyplexes were used as the control.
(§3) After 48 h of transfection, 50 μl of MTT reagent was added to 500 μl medium in each well and incubated for 3 h at 37° C. The culture media were removed and 500 μl dimethyl sulfoxide (DMSO) was added to each well and incubated for 20 min at room temperature. Absorbance was measured at 570 nm.
(§4) 3T3-L1 differentiated adipocytes at day 10 were transfected with the oligo-peptoplexes. After 48 h of transfection, cell viability was analyzed by MTT assay (n=6).

[3] = tested on: 3T3-L1 differentiated adipocytes; test: In vitro cytotoxicity (MTT) assay; format: cell-based; conditions: adipocytes at day 10, 48 h after transfection
Method: as §1, §2, §3, §4

3T3-L1 preadipocytes [4] = test: Internalization of FITC-ATS-R9 into cells (confocal microscopy); format: cell-based
Method: (§5) Cellmask Deep Red was purchased from Invitrogen and DAPI-Fluoromount-G was purchased from Southern Biotech. 3T3-L1 preadipocytes, H9c2, and HEK293 cells were grown and differentiated on coverslips placed in 6 well plates.
(§6) After 24 h of seeding, the cells were treated with the FITC conjugated ATS-R9 (25 μg/ml) and incubated in a time-dependent manner that ranged from 15 min to 72 h.
(§7) After incubation, culture media were replaced, and the cells were washed three times with PBS and fixed in 3.7% formaldehyde. The plasma membranes of the cells were stained with Cellmask Deep Red. The cells were washed again with PBS and mounted in the presence of DAPI to stain the nuclei. Images were captured with a Carl Zeiss confocal microscope.
(§8) To monitor the degree of internalization of ATS-R9 into cells, mature adipocytes and preadipocytes were treated with FITC-labeled ATS-R9 (FITC-ATS-R9) and the delivery of the support to the cells was investigated.

[5] = tested on: diet-induced obesity (DIO) mice; test: In vivo fat homing (pCLE, Cellvizio); conditions: FITC-conjugated peptide, tail vein injection, obese mice
Method: C57BL/6J mice at 3 weeks of age were purchased from Central Lab Animal Inc. (Korea). For the first two weeks, the mice were fed 50% normal diet and 50% rodent diet with 60 kcal % from fat. […] The mice became obese after week 14 (body weight>45 g).
FITC conjugated ATS-9R (10 mg/ml) and FITC-9R (10 mg/ml) were diluted in PBS to a final concentration of 1.5 mg/ml and 100 μl of peptide was injected into obese mice by tail vein injection. Immediately after injection, peptide localization in vasculatures of different organs was observed by Cellvizio (Mauna Kea Technologies, France).
In this example, in vivo experiments were conducted using diet-induced obesity (DIO) mice. FITC-ATS-R9 was administered to the obese mice by tail vein injection to observe the targeting of the ATS-R9 to adipose tissue. Tracking was visualized using probe-based confocal laser endomicroscopy (pCLE, Cellvizio).

Serum protection assay = format: in vitro ADME; conditions: 50% (vol/vol) mouse serum, 2 h at 37° C., optimum charge ratio
Method: Oligo-peptoplexes were prepared at predetermined charge ratios, mouse serum was added to the polyplexes at a final concentration of 50% (vol/vol), and the samples were incubated for 2 h at 37° C.
For the decomplexation of DNA from the polyplexes after serum incubation, heparin in phosphate-buffered saline (pH 7.4, 0.5 mol/l NaCl) was added to the samples in the presence of 0.01 mol/l EDTA and incubated for 1 h. The samples were loaded in 0.8% agarose gel.

obese adipocytes = test: Comparison of gene delivery ability (luciferase gene); format: cell-based
Method: The ability of ATS-R9 to deliver luciferase gene to obese adipocytes was evaluated. PEI and lipofectamine were used as controls.
Gene delivery efficacies before and after adipocyte differentiation were compared.
Luciferase was used as a gene to be delivered and scrambled ATS was used as a fat-targeting sequence. The ability of (scrambled ATS)-R9 to deliver the gene to obese adipocytes was compared to that of ATS-R9.

[6] = tested on: 3T3-L1 differentiated adipocytes; test: Internalization of FITC-ATS-R9 into cells (confocal microscopy); format: cell-based; conditions: FITC-conjugated ATS-R9 25 μg/ml, adipocytes at day 10
Method: as §5, §6, §7, §8
3T3-L1 differentiated adipocytes (at day 10) were treated with FITC-conjugated ATS-R9 (25 μg/ml) and incubated for predetermined periods. The plasma membranes of the cells were stained with Cellmask Deep Red and the nuclei were counterstained with DAPI. Blue channel (for DAPI) is depicted as white to show nuclear localization of ATS-R9. Images were captured with a confocal laser scanning microscope. Scale bar: 10 μm.

Fabp4 gene = test: fabp4 sh-RNA gene silencing (RT-PCR); format: cell-based; conditions: 3T3-L1 mature adipocytes, 2 μg of fabp4 sh-RNA
Method: First, 3T3-L1 mature adipocytes were transfected with 2 μg of fabp4 sh-RNA by ATS-R9, PEI, and lipofectamine and gene silencing efficiency was measured by RT-PCR. GAPDH was used as an endogenous control. As a result, the Fabp4 gene silencing efficiency was 70% or more (FIG. 15).

[7] = Zeta potential and size measurement (DLS); format: physicochemical
Method: 5 μg of luciferase plasmid DNA (p-β-Luci), deionized water, and ATS-R9 (charge ratios: 0.5, 1, 3, 5, 7, and 9) were incubated for 30 min at room temperature to construct oligo-peptoplexes. The mean diameters and surface zeta potentials of the oligo-peptoplexes were measured using DLS equipped with a Zetasizer-Nano ZS (Malvern Instruments, UK).

[8] = tested on: 3T3-L1 differentiated adipocytes; test: In vitro transfection efficiency (luciferase assay); format: cell-based; conditions: charge ratio of 5, mature adipocytes at day 10, 72 h
Method: A luciferase assay kit was purchased from Promega (USA). A DC protein assay kit and bovine serum albumin standard were purchased from Bio-Rad Laboratories (USA). 3T3-L1 preadipocytes and differentiated adipocytes were seeded in 24 well plates.
Oligo-peptoplexes were prepared by mixing ATS-9R and 2 μg of luciferase plasmid DNA at a charge ratio of 5. R9 and PEI polyplexes were used as controls and prepared at a charge ratio of 5.
The cell lysates were then scraped, harvested, transferred to 1.5 ml microtubes, and centrifuged for 3 min at 13,000 rpm.
The luminescence of the cell lysates was measured on a 96-well plate luminometer (Berthold Detection Systems, Germany) with 20-second integration and expressed as relative luminescence units (RLU)/mg of cell protein. Protein concentration was determined by the DC protein assay kit with bovine serum albumin standard.
Mature adipocytes at day 10 of differentiation were transfected with p-β-Luci by ATS-R9, R9, and PEI at a charge ratio of 5.
To determine an optimum transfection time point, 3T3-L1 differentiated adipocytes were transfected with luciferase plasmid DNA (p-β-Luci) by ATS-R9 and PEI at a charge ratio of 5 at different days of differentiation.

3T3-L1 mature adipocytes = test: Targeting of rhodamine B-labeled ATS depending on degree of differentiation; format: cell-based; conditions: RhoB-ATS
Method: (§9) To investigate the location and amount of prohibitin expressed depending on the degree of adipocyte differentiation, two types of adipocytes were treated with rhodamine B-labeled ATS (RhoB-ATS).
(§10) Binding of ATS to prohibitin was determined by an immunoprecipitation assay (FIG. 5a) and the distributions of prohibitin in 3T3-L1 preadipocytes and mature adipocytes were confirmed through the staining results (FIGS. 5b and 5c).

3T3-L1 preadipocytes [9] = test: as above; format: cell-based; conditions: RhoB-ATS
Method: as §9, §10

prohibitin = target: T1, prohibitin (Mus musculus, UniProt P67778); test: Binding of ATS to prohibitin (immunoprecipitation assay)
T1 construct: endogenous in cells; host or cells: 3T3-L1 preadipocytes and differentiated mature adipocytes (day 10)
T1 sequence (P67778 1-272): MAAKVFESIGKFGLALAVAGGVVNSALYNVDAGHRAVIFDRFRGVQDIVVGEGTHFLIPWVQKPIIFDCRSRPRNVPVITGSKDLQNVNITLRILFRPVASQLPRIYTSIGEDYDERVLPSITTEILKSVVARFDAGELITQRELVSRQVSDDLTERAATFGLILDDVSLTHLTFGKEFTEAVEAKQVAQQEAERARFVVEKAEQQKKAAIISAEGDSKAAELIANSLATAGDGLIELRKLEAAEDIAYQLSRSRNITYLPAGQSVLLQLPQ
Method: as §9, §10

C[C@H](NC(=O)[C@H](CCCNC(=N)N)NC(=O)CNC(=O)CNC(=O)[C@H](CCCCN)NC(=O)[C@@H](N)CS)C(=O)N[C@@H](CCCCN)C(=O)N[C@@H](CC(=O)O)C(=O)N[C@@H](CCCNC(=N)N)C(=O)N[C@@H](CCCNC(=N)N)C(=O)N[C@@H](CCCNC(=N)N)C(=O)N[C@@H](CCCNC(=N)N)C(=O)N[C@@H](CCCNC(=N)N)C(=O)N[C@@H](CCCNC(=N)N)C(=O)N[C@@H](CCCNC(=N)N)C(=O)N[C@@H](CCCNC(=N)N)C(=O)N[C@@H](CCCNC(=N)N)C(=O)N[C@@H](CS)C(=O)O [ATS-R9] (H-CKGGRAKDRRRRRRRRRC-OH; N-terminus and C-terminus assumed)
DNA condensation (no DNA migration) [1]: complete DNA condensation | internalization into in vivo adipose tissues (C57BL/6J obese mice; tail vein injection, multiphoton confocal microscopy): penetrated the blood vessels and was gradually internalized into adipocytes | viability at 48 h [2]: ≥ 90% | toxicity to differentiated adipocytes [3]: non-toxicity | migration to the nuclei observed after (3T3-L1 preadipocytes [4]): > 48 h | aggregation in fat pad vasculatures [5]: aggregated in the fat pad vasculature | aggregation in the other organs (liver, kidney) [5]: no aggregation was observed | binding to fat pad microvessels [5]: bound to the fat pad microvessels | DNA degradation in serum (Serum protection assay): protected DNA from degradation | gene delivery efficacy as differentiation into obese adipocytes proceeded (obese adipocytes; before and after adipocyte differentiation): increased | gene delivery efficacy to obese adipocytes (obese adipocytes; luciferase gene, PEI and lipofectamine as controls): superior to those of the other delivery systems PEI and lipofectamine | strong fluorescence signals / steady state maintained [6]: 48 h | time to reach the cytoplasm [6]: ≤ 15 min | time to reach the nuclei [6]: ≤ 1 h | Fabp4 gene silencing efficiency (Fabp4 gene): ≥ 70% | size of condensed DNA complex ([7]; ATS-R9 bound to DNA, neutral conditions): ≤ 200 nm | zeta potential ([7]; charge ratio of ≧1 (description)): positive | transfection efficiency (luciferase gene expression) [8]: higher transfection efficiency and gene expression efficiency than PEI and R9

CKGGRAKDC (optionally rhodamine B labeled; Synthetic peptide adipocyte targeting sequence) [ATS, used free or rhodamine B-labeled]
targeting efficiency / delivery to obese cells after differentiation (3T3-L1 mature adipocytes): effectively delivered; also recorded: very high | targeting efficiency to adipocytes before differentiation (3T3-L1 preadipocytes [9]): not significantly high | ability to bind to prohibitin (prohibitin): high ability to bind to prohibitin

CRRRRRRRRRC (C[dR][dR][dR][dR][dR][dR][dR][dR][dR]C; cysteine pairing not given here) [R9, reference compound]
aggregation in fat pad vasculatures [5]: aggregation was not observed in the fat vasculatures | binding to fat pad microvessels [5]: no binding

FITC-ATS-R9: FITC conjugated ATS-R9 (CKGGRAKDRRRRRRRRRC), SEQ ID NO: 2 (not fully specified (N-terminus); cysteine pairing not given here; also: FITC conjugated, site not given here)
in vivo RFP gene expression (C57BL/6J obese mice; RFP expressing plasmid concentrated by FITC-ATS-R9): clearly confirmed | adipose tissue homing (immunofluorescence assay) (C57BL/6J obese mice; anti-FITC antibody, Cy3-ExtrAvidin): confirms the induction
